Measurements reported in PubChem BioAssay (NCI).
“And” between values parts separate entries of the source, which are not always exact repeats. Equal entries are not always repeated.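 Each compound was tested at five concentrations against cells in 96-well plates for 48 hours. GI50: concentration for 50% inhibition of growth. TGI is the concentration that stops growth completely.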

Columns and labels:
Test in all cases: NCI anticancer screen, dose series, 48 h
BT-549 breast = tested on: BT-549 breast
HS 578T breast = tested on: HS 578T breast
NCI/ADR-RES ovarian = tested on: NCI/ADR-RES ovarian
MDA-MB-231 breast = tested on: MDA-MB-231 breast
DU-145 prostate = tested on: DU-145 prostate
SNB-78 CNS = tested on: SNB-78 CNS
M19-MEL melanoma = tested on: M19-MEL melanoma
DMS 273 small cell lung = tested on: DMS 273 small cell lung
DLD-1 colon = tested on: DLD-1 colon

Compound | GI50 (BT-549 breast) | TGI (BT-549 breast) | GI50 (HS 578T breast) | TGI (HS 578T breast) | GI50 (NCI/ADR-RES ovarian) | TGI (NCI/ADR-RES ovarian) [µM] | GI50 (MDA-MB-231 breast) | TGI (MDA-MB-231 breast) [µM] | GI50 (DU-145 prostate) | TGI (DU-145 prostate) [µM] | TGI (SNB-78 CNS) [µM] | TGI (M19-MEL melanoma) [µM] | TGI (DMS 273 small cell lung) [µM] | TGI (DLD-1 colon) [µM]
CC(=O)OC1CCC2(C)C(=CCC3C4CC(CN5CC5)C(=O)C4(C)CCC32)C1 (centres undefined) | 10.4 µM | 22.9 µM | 20.4 µM | 65.8 µM | 16 µM | 41.5 | 11.8 µM | 25 | 8.29 µM | 20.4 | – | – | – | –
CCn1c(SC)nnc1-c1cc2c([nH]c3ccccc32)c(-c2cccc(O)c2)n1 | 1.68 µM | 6.31 µM | 1.97 µM | 9.76 µM | 3.71 µM | 36.1 | 2.43 µM | 15.9 | 4.46 µM | 24.9 | – | – | – | –
O=NNc1nc(-c2ccccn2)nc2ccccc12 | – | > 100 µM | – | > 100 µM | – | 63.5 | – | > 100 | – | > 100 | – | – | – | –
OCCn1c(-c2ccncc2)c(-c2ccc(F)cc2)c2ncccc21 | > 25 µM | > 25 µM | > 25 µM | > 25 µM | > 25 µM | > 25 | > 25 µM | > 25 | > 25 µM | > 25 | – | – | – | –
Cc1cc(C2(c3cc(C)c(O)c4ncccc34)OC(=O)c3ccccc32)c2cccnc2c1O | 5.26 µM | > 100 µM | – | – | 0.0138 µM | 17.1 | 0.0215 µM | 22.7 | 0.242 µM | > 100 | – | – | – | –
O=C(NCc1cccnc1)c1ccc([N+](=O)[O-])o1 | 9.77 µM | > 15.1 µM | 2.52 µM | > 9.5 µM | 1.66 µM | 23.9 | 16.1 µM | > 32.5 | 1.11 µM | 4.11 | – | – | – | –
Cc1cc2c(=O)cc(-c3ccncc3)oc2c(C(=O)O)c1C | – | – | – | – | – | – | – | – | – | – | > 100 | > 100 | > 100 | –
N#Cc1c(N/N=C/c2c(Cl)cccc2Cl)nc(N)nc1N1CCCC1 | 11.3 µM | > 100 µM | 3.05 µM | > 100 µM | 1.5 µM | 6.98 | 3.25 µM | 42.2 | 5.23 µM | > 100 | – | – | – | –
C/C(=N\NC(=O)c1ccncc1)c1ccccc1O | 3.79 µM | 84.7 µM | 26.7 µM | > 100 µM | 2.23 µM | > 100 | 5.65 µM | > 100 | 4.85 µM | > 100 | – | – | – | –
Cc1cc2c(SCc3ccccc3Cl)nc(N)nc2nc1C | – | > 100 µM | – | > 100 µM | – | > 100 | – | > 100 | – | > 100 | – | – | – | –
CC(C)c1nc(Cl)c(Cl)c(Cl)n1 | – | 27.1 µM | – | 14 µM | – | 55.8 | – | 23.2 | – | 20.3 | – | – | – | –
CN1CCN(Cc2ccc(NC(=O)c3cncc(C#Cc4cnc5cccnn45)c3)cc2C(F)(F)F)CC1 | 1.74 µM | 5.65 µM | 0.922 µM | 3.26 µM | 1.83 µM | 8.1 | 0.798 µM | 3.87 | 1.54 µM | 5.34 | – | – | – | –
Oc1ccc(CCNc2nc3ccccc3c3[nH]c4ccccc4c23)cc1 | 1.93 µM | 3.69 µM | – | – | 2.68 µM | 9.28 | 1.36 µM | 2.97 | 1.45 µM | 3.42 | – | – | – | –
O=[N+]([O-])C1(CO)COC(CCc2ccccc2)OC1 (centres undefined) | – | – | – | – | – | – | – | – | – | – | – | > 100 | – | > 100
Clc1ccc(N=CNc2ccc(-c3nc4ccccc4[nH]3)cc2)cc1 | 20.7 µM | 57.3 µM | 91.9 µM | > 100 µM | – | – | > 100 µM | > 100 | 59.2 µM | > 100 | – | – | – | –
CC(C)C12CCC3(CCC4C(C)(C(=O)O)CCCC4(C)C3C1)C(CN)C2 (centres undefined) | – | 95.5 µM | – | > 100 µM | – | > 100 | – | > 100 | – | > 100 | – | – | – | –
CCNc1nc(-c2ccc(Cl)c(OC)c2)c(-c2ccnc(NCCNS(=O)(=O)c3ccc(Cl)cc3)n2)s1 | 3.09 µM | 38 µM | 3.98 µM | 87.2 µM | 3.51 µM | > 100 | 2.15 µM | 5.03 | 3.94 µM | > 100 | – | – | – | –
O=C1COc2c(CCNCCN(C(=O)CCNCCc3ccc(Cl)c(Cl)c3)C3CCCCC3)ccc(O)c2N1 | 14.3 µM | 29 µM | 15.4 µM | 34.9 µM | > 100 µM | > 100 | 10.5 µM | 25.6 | 17.7 µM | 32 | – | – | – | –
CCC(=C(c1ccc(OCCN(CC)CC)cc1)c1ccc(OCCN(CC)CC)cc1)c1ccc(Cl)cc1 | 0.647 µM | 1.45 µM | 0.668 µM | 1.57 µM | 0.625 µM | 1.21 | 0.573 µM | 1.09 | 0.619 µM | 1.19 | – | – | – | –
CC(=O)Nc1ccc(C(=O)COc2cccc(/C=C3\CCc4ccccc4C3=O)c2)cc1 | 17.6 µM | 54.2 µM | 32.6 µM | > 100 µM | 10.5 µM | 65.9 | 18.7 µM | 85.9 | 19.2 µM | 53 | – | – | – | –
CS(=O)(=O)Nc1ccc(Nc2c3ccccc3nc3cc(Cl)ccc23)cc1 | 3.16 µM | 20 µM | 2.83 µM | 40.4 µM | 3.93 µM | 37.5 | 4.56 µM | 19.8 | 0.646 µM | 14 | – | – | – | –
Brc1ccc2c(c1)-c1ccccc1C1=NCCN12 | 1.88 µM | 6.07 µM | 2.8 µM | 12 µM | 0.897 µM | 26.7 | 1.73 µM | 4.29 | 1.09 µM | 10.9 | – | – | – | –
COc1cc2nccc(Oc3ccc(NC(=O)C4(C(=O)Nc5ccc(F)cc5)CC4)cc3)c2cc1OC | > 10 µM and 8.8 µM | > 10 µM and 72.4 µM | 0.45 µM and 0.857 µM | > 10 µM and 10.8 µM | > 10 µM and 3.43 µM | > 100 | > 10 µM and 3.1 µM | > 40.6 | > 10 µM and 5.47 µM | > 100 | – | – | – | –
COc1cc(/C=C/C(=O)c2c(-c3ccc(Cl)cc3)nc3sc(C)nn23)cc(OC)c1OC | 7.77 µM | 77.7 µM | 24.7 µM | > 100 µM | 7.85 µM | > 100 | 14.3 µM | > 100 | > 100 µM | > 100 | – | – | – | –
